Results as given in the supplement of paper PMC11919725.

Experiments:
Jurkat [1] = assay: confluency relative to DMSO, 18 h (ratio); higher = more viable
Method in brief: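 Jurkat cells and primary CD4+/CD8+ T cells, naive or activated with CD3/CD28 Dynabeads for 48 h, were treated with compound (1 nM–10 µM, log10 steps) for 18 h at 37 °C. Following transfer of 100 µl into 96-well plates with IncuCyte Cytotox Dye and alamarBlue, wells were imaged at ×10, five images per well, each hour for 3 h. Confluency, obtained with the IncuCyte Basic Analyzer from phase-contrast images, is normalised to the mean of the control wells.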

Jurkat [2] = assay: cytotoxicity relative to DMSO, 18 h (ratio); higher = less cell death (drugs called cytotoxic fall below 1)
Method in brief: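 Cytotoxicity was measured by IncuCyte fluorescence imaging after confluency correction and normalisation to mean control values. Cells (Jurkat, or primary CD4+/CD8+ T cells that were naive or pre-activated 48 h with CD3/CD28 Dynabeads) received compound at 1 nM–10 µM in log10 steps for 18 h at 37 °C, 5% CO2. Imaging used ×10 magnification, five images per well, taken hourly over 3 h in 96-well plates with 250 nM final IncuCyte Cytotox Dye in 100 µl of suspension.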

Jurkat [3] = assay: metabolic activity relative to DMSO, 18 h (ratio); higher = more viable
Method in brief: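 Jurkat or primary CD4+/CD8+ T cells (naive, or activated 48 h with CD3/CD28 Dynabeads) were treated 18 h with compound at 1 nM–10 µM (log10 steps) at 37 °C, 5% CO2. Then 100 µl of suspension went into 96-well plates with alamarBlue (10% v/v final). After 3.5 h, fluorescence was read on a FluoStar Omega (excitation 544 nm, emission 584 nm). Metabolic activity is normalised to mean DMSO controls.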

SMILES	confluency (Jurkat [1]; 1 nM)	confluency (Jurkat [1]; 10 nM)	confluency (Jurkat [1]; 100 nM)	confluency (Jurkat [1]; 1000 nM)	confluency (Jurkat [1]; 10000 nM)	cytotoxicity (Jurkat [2]; 1 nM)	cytotoxicity (Jurkat [2]; 10 nM)	cytotoxicity (Jurkat [2]; 100 nM)	cytotoxicity (Jurkat [2]; 1000 nM)	cytotoxicity (Jurkat [2]; 10000 nM)	metabolic activity (Jurkat [3]; 1 nM)	metabolic activity (Jurkat [3]; 10 nM)	metabolic activity (Jurkat [3]; 100 nM)	metabolic activity (Jurkat [3]; 1000 nM)	metabolic activity (Jurkat [3]; 10000 nM)
CC(C)C(C(=O)Nc1ccc(C(=O)NO)cc1)c1ccccc1 (stereo not given) [AR-42]	0.972	0.984	0.941	0.97	0.97	0.947	1.02	0.892	0.807	0.811	0.942	1.02	0.934	0.577	0.695
Cc1ncc(-c2ccnc(Nc3ccc(S(C)(=O)=O)cc3)n2)n1C(C)C [AZD-5438]	1.06	1.12	0.972	0.991	0.944	0.927	0.91	0.951	1.03	1.02	1.08	1.14	1.14	1.08	0.124
Cc1cc(C(C)Nc2ccccc2C(=O)O)c2nc(N3CCOCC3)cc(=O)n2c1 (stereo not given) [AZD-6482]	1.03	1.03	0.994	0.984	0.928	1.19	1.22	1.14	1.06	0.946	1.16	1.14	1.03	1.03	0.923
COc1ccc(-c2ccc3c(N4CCOCC4C)nc(N4CCOCC4C)nc3n2)cc1CO (stereo not given) [AZD-8055]	0.982	1	0.96	0.99	0.99	0.884	0.815	0.84	0.834	0.823	0.971	0.823	0.622	0.572	0.537
CC(Nc1cc(F)cc(F)c1)c1cc(C(=O)N(C)C)cc2c(=O)cc(N3CCOCC3)oc12 (stereo not given) [AZD-8186]	0.882	0.901	0.946	0.826	0.846	0.895	0.858	0.928	0.803	0.831	0.891	1.03	1.01	1.03	1.08
CCN1CCN(Cc2ccc(Nc3ncc(F)c(-c4cc(F)c5nc(C)n(C(C)C)c5c4)n3)nc2)CC1 [Abemaciclib]	0.952	1.02	0.98	0.991	0.818	1.04	1.13	1.06	1.09	0.718	1.22	1.24	1.2	1.15	0.888
Cc1c2oc3c(C)ccc(C(=O)NC4C(=O)NC(C(C)C)C(=O)N5CCCC5C(=O)N(C)CC(=O)N(C)C(C(C)C)C(=O)OC4C)c3nc-2c(C(=O)NC2C(=O)NC(C(C)C)C(=O)N3CCCC3C(=O)N(C)CC(=O)N(C)C(C(C)C)C(=O)OC2C)c(N)c1=O (stereo not given) [Actinomycin D]	1.11	1.09	0.972	0.907	0.923	1.08	1.02	0.661	0.517	0.477	0.959	0.746	0.2	0.152	0.192
Cc1nc(NC(=O)N2CCCC2C(N)=O)sc1-c1ccnc(C(C)(C)C(F)(F)F)c1 (stereo not given) [Alpelisib]	0.994	0.977	0.984	1.02	0.933	0.929	0.926	0.959	0.997	0.881	1.04	0.899	0.903	0.94	0.873
CN1CCC(c2c(O)cc(O)c3c(=O)cc(-c4ccccc4Cl)oc23)C(O)C1 (stereo not given) [Alvocidib]	0.999	0.999	0.974	0.927	0.939	1.03	0.92	0.89	0.505	0.526	1.04	0.946	0.712	0.086	0.108
COc1cc(OC)c2c(=O)[nH]c(-c3cc(C)c(OCCO)c(C)c3)nc2c1 [Apabetalone]	1.08	1.11	1.04	1.08	1.1	1.06	1.08	1.01	1.04	1.01	0.842	0.904	0.962	0.952	0.932
Cc1c(CN2CCN(C(=O)C(C)O)CC2)sc2c(N3CCOCC3)nc(-c3cnc(N)nc3)nc12 (stereo not given) [Apitolisib]	0.851	1.06	0.825	0.998	0.727	0.79	0.992	0.752	0.937	0.628	0.857	0.984	0.899	0.955	0.781
COc1ccc(-c2ccc3ncc4c(c3c2)n(-c2ccc(N3CCNCC3)c(C(F)(F)F)c2)c(=O)n4C)cn1 [BGT-226]	1.03	0.954	0.935	0.793	0.831	1.02	0.915	0.808	0.672	0.448	0.968	0.842	0.693	0.604	0.048
